Columns and labels:
[1] = test system: BON human GI carcinoid cancer cells; experiment: Western blot analysis of GI carcinoid cells; type: cell-based
Procedure: Cell Culture BON human GI carcinoid cancer cells, kindly provided by Drs. B. Mark Evers and Courtney M. Townsend, Jr.
Total protein concentrations were quantified with a bicinchoninic acid assay kit (Pierce Biotechnology, Rockford, Ill., USA). Denatured cellular extracts were resolved by SDS-PAGE, transferred to nitrocellulose membranes (Schleicher and Schuell, Keene, N.H., USA), blocked in milk, and incubated with appropriate antibodies. The antibody dilutions were: 1:1,000 for Notch1 (Santa Cruz Biotechnology, Santa Cruz, Calif., USA), mammalian achaete-scute homolog 1 (ASCL1; BD Biosciences, San Diego, Calif., USA), chromogranin A (Zymed Laboratories, San Francisco, Calif., USA), and cyclin D1 (Cell Signaling Technology, Danvers, Mass., USA), 1:2,000 for p21 (Cell Signaling Technology) and p27 (Santa Cruz Biotechnology), and 1:10,000 for glyceraldehyde-3-phosphate dehydrogenase (G3PDH; Trevigen, Gaithersburg, Md., USA). Horseradish peroxidase conjugated goat anti-rabbit or goat anti-mouse secondary antibodies (Pierce Biotechnology) were used depending on the source of the primary antibody. For visualization of the protein signal, Immunstar (Bio-Rad Laboratories, Hercules, Calif., USA) or SuperSignal West Femto (Pierce Biotechnology) kits were used per the manufacturer's instructions.
Cell Culture BON human gastrointestinal (GI) carcinoid tumor cells, kindly provided by Drs. B. Mark Evers and Courtney M. Townsend, Jr.
Total protein concentrations were quantified with a bicinchoninic acid assay kit (Pierce Biotechnology, Rockford, Ill.). Denatured cellular extracts were resolved by SDS-PAGE, transferred onto nitrocellulose membranes (Schleicher and Schuell, Keene, N H), blocked in milk, and incubated with appropriate antibodies. The antibody dilutions were: 1:1,000 for Notch1 (Santa Cruz Biotechnology, Santa Cruz, Calif.), mammalian achaete-scute homolog 1 (ASCL1; BD Biosciences, San Diego, Calif.), chromogranin A (Zymed Laboratories, San Francisco, Calif.), and cyclin D1 (Cell Signaling Technology, Danvers, Mass.), 1:2,000 for p21 (Cell Signaling Technology) and p27 (Santa Cruz Biotechnology), and 1:10,000 for glyceraldehyde-3-phosphate dehydrogenase (G3PDH; Trevigen, Gaithersburg, Md.). Horseradish peroxidase conjugated goat anti-rabbit or goat anti-mouse secondary antibodies (Pierce Biotechnology) were used depending on the source of the primary antibody. For visualization of the protein signal, Immunstar (Bio-Rad Laboratories, Hercules, Calif.) or SuperSignal West Femto (Pierce Biotechnology) kits were used per the manufacturer's instructions.

[2] = test system: H727 human lung carcinoid cancer cells; experiment: Western blot analysis of pulmonary carcinoid cells; type: cell-based
[3] = Serum VPA level in xenograft mice; type: in vivo; conditions: nude athymic NU/NU, mouse, ip, two hours after i.p. injection, last day, 366 mg/kg, read-out: median serum VPA level
Procedure: After confirming that VPA activates Notch1 signaling and suppresses carcinoid cell growth in vitro, we were interested in testing its efficacy in vivo. Subcutaneous human GI carcinoid tumors were developed in immunocompromised mice, which were then given daily intraperitoneal injections of VPA, and the tumors were measured every 4 days for 20 days. The tumors of the saline-treated control mice grew at a higher rate than did those of the VPA-treated animals (FIG. 28A). Indeed, the growth of the tumors in the treatment group was almost static. On the last day of the experiment, blood was drawn from each animal in the treatment group two hours after intraperitoneal injection of VPA.

BON cells = experiment: Subcutaneous GI carcinoid xenograft study; type: in vivo, mice; conditions: 366 mg/kg daily i.p., 20 days
Procedure: Xenograft Studies BON cells (1×10^6) were suspended in Hanks' balanced salt solution (Invitrogen) and injected subcutaneously into the right flank of 12 male nude athymic NU/NU mice (Charles River Laboratories, Wilmington, Mass.) under anesthesia. After palpable tumors developed, the mice were divided into 2 groups of 6 animals. The control group received daily intraperitoneal (i.p.) injections of saline while the treatment group received daily i.p. injections of VPA (366 mg/kg) for 20 days. The length and width of tumors were measured with a vernier caliper every 4 days and tumor volumes were calculated using the formula, volume=width^2×length×0.52. At the end of the experiment the mice were sacrificed and the tumors were resected and frozen in liquid nitrogen. Whole tumor cell protein lysates were prepared for immunoblotting as previously described (Vaccaro A et al., In-vivo activation of Raf-1 inhibits tumor growth and development in a xenograft model of human medullary thyroid cancer. Anticancer Drugs 2006; 17:849-853). This experiment was performed in accordance with the protocols of the University of Wisconsin Medical School Animal Care and Use Committee.

BON GI carcinoid cells = experiment: Flow cytometry cell cycle analysis; type: cell-based, human; conditions: VPA
Procedure: Flow Cytometry GI carcinoid cells treated with or without VPA were labeled for 1 hour with 10 μM bromodeoxyuridine (Sigma-Aldrich) and counter-stained with 50 μg/ml propidium iodide and analyzed by two-dimensional flow cytometry (FACSCalibur flow cytometer; BD Biosciences) to detect both fluorescein and propidium iodide as previously described (Hirai, H. et al., Involvement of cell cycle progression in survival signaling through CD40 in the B-lymphocyte line WEHI-231. Cell Death Differ 2004; 11:261-269). Results were analyzed with FlowJo software (Tree Star, Ashland, Oreg.).

CCCC(CCC)C(=O)O [VPA, 2-propylpentanoic acid]
ASCL1 protein ([1]; VPA): dose-dependent decrease
full-length Notch1 and NICD ([1]; VPA 0-4 mM, 2 days): increase
protein levels of p21 and p27 ([1]; VPA 1 mM): increase in protein levels
cyclin D1 level ([1]; VPA 4 mM, 4 days): almost undetectable
protein levels of CgA ([1]; VPA, two days): decreased
ASCL1 protein ([2]; VPA): dose-dependent decrease
full-length Notch1 and NICD ([2]; VPA 0-4 mM, 2 days): increase
ASCL1 protein ([2]; VPA 4 mM, 2 days): undetectable levels
protein levels of CgA ([2]; VPA, two days): decreased
concentration at 2 h [3]: 46000 ng/mL
growth of the tumors (BON cells): almost static
neurotoxicity (BON cells): no signs of neurotoxicity
expression of ASCL1 in resected tumors (BON cells; Western blot): decreased expression
cells in the S phase (BON GI carcinoid cells): decrease
percentage of cells in the G1 phase (BON GI carcinoid cells): dose-dependent increase
